Assay results reported in patent publication US20250375453A1, “HIGH-EFFICIENCY ANTIMICROBIAL COMPOSITION” (CM4CURE S.A., priority 2023, published 2025).

Key:
[1] = system: Candida tropicalis; details: cited from earlier work
[2] = system: Klebsiella spp.; details: cited from earlier work
[3] = chlorhexidine base; cited from earlier work
[4] = system: Staphylococcus aureus MRSA; details: cited from earlier work
[5] = system: Lactobacillus acidophilus; details: cited from earlier work
[6] = system: Escherichia coli; details: cited from earlier work
[7] = system: Pseudomonas aeruginosa; details: cited from earlier work
[8] = system: Aspergillus spp.; details: cited from earlier work
[9] = system: Enterococcus faecalis; details: cited from earlier work
[10] = system: Candida krusei; details: cited from earlier work
[11] = system: Candida albicans (CA); test: MIC in monotherapy and in combination therapy (ISO standard 20776-1); assay type: cell-based
Description: (§1) Summary of MIC Values for Fluometacyl (FLC)+Chlorhexidine (CHX) Tested Against MRSA, Enterococcus faecalis (VRE), Pseudomonas aeruginosa (PA) and Candida albicans (CA).
(§2) By Minimum Inhibitory Concentration (MIC) one means the lowest concentration of antimicrobial that prevents visible growth of a microorganism (determined according to ISO standard 20776-1).
(§3) This finds an implication in combining many known antimicrobials together rather than discovering new chemical entities.

[12] = system: Pseudomonas aeruginosa (PA); test: as above; assay type: cell-based
Description: as §1, §2, §3

[13] = system: Staphylococcus aureus (MRSA); test: as above; assay type: cell-based
Description: as §1, §2, §3

[14] = system: Lactobacillus reuteri; details: cited from earlier work
[15] = system: Streptococcus mutans; details: cited from earlier work
[16] = system: Lactobacillus fermentum; details: cited from earlier work
[17] = system: Staphylococcus aureus MSSA; details: cited from earlier work
[18] = system: Staphylococcus aureus (MRSA, ATCC 6538); test: Real-time microcalorimetric measurement of bacterial metabolic activity (heat flow, Calscreener); assay type: cell-based
Protocol: Staphylococcus aureus (MRSA, ATCC 6538) was grown overnight in TSB (tryptic soy broth) medium, before being diluted 1×10^6 fold in fresh TSB. Subsequently […] aliquots of diluted bacteria suspensions were respectively supplemented with 1 and 2 mg/L of chlorhexidine (digluconate solution, 20% in H2O, Merck). […] The aqueous solution of chlorhexidine and the ethanol-based solution of triafluocyl were kept refrigerated. Chlorhexidine, triafluocyl or both, and ethanol as a vehicle were added to the bacterial suspensions to obtain the given concentrations followed by a brief vortexing. Bacterial aliquots were then distributed in the dedicated non-activated inserts of a 48-well plate and grown for 24 h or more under static conditions at 37 C using Calscreener technology to measure bacterial growth and metabolic activity in Real-Time as described in https://cordis.europa.eu/project/id/784514.
Staphylococcus aureus (MRSA, ATCC 6538) was grown overnight in TSB (tryptic soy broth) medium, before being diluted 1×10^6 fold in fresh TSB. Subsequently […] aliquots of diluted bacteria suspensions were respectively supplemented with 0.25, 0.5 and 1 μg/mL of chlorhexidine (digluconate solution, 20% in H2O, Merck) or alexidine dihydrochloride (stock solution of 3 mg/mL in ethanol, Merck).
The aqueous solution of chlorhexidine and the ethanol-based solution of alexidine were kept refrigerated. Chlorhexidine, alexidine, and ethanol as a vehicle were added to the bacterial suspensions to obtain the given concentrations followed by a brief vortexing. Bacterial aliquots were then distributed in the dedicated non-activated inserts of a 48-well plate and grown for 24 h or more under static conditions at 37 C using Calscreener technology to measure bacterial growth and metabolic activity in Real-Time as described in https://cordis.europa.eu/project/id/784514.
Staphylococcus aureus (MRSA, ATCC 6538) was grown overnight in TSB (tryptic soy broth) medium, before being diluted 1×10^6 fold in fresh TSB. Subsequently […] aliquots of diluted bacteria suspensions were respectively supplemented with […] of alexidine dihydrochloride (stock solution of 3 mg/mL in ethanol, Merck). […] The ethanol-based solutions of alexidine and fluometacyl were stored at −20° C.
Alexidine alone or with fluometacyl, and ethanol as a vehicle were added to the bacterial suspensions to obtain the given concentrations followed by a brief vortexing. Bacterial aliquots were then distributed in the dedicated non-activated inserts of a 48-well plate and grown for 24 h or more under static conditions at 37 C using Calscreener technology to measure bacterial growth and metabolic activity in Real-Time.

[19] = MIC combination / MIC monotherapy

For `[H]/N=C(\N/C(=N/[H])NCCCCCCNC(=N)NC(=N)Nc1ccc(Cl)cc1)Nc1ccc(Cl)cc1` [Chlorhexidine, chlorhexidine], the MIC of chlorhexdine [1] is given as 75 µg/mL, the MIC of chlorhexdine [2] is given as 8 to 16 µg/mL and the solubility in water [3] is given as “insoluble in water”. The MIC of chlorhexdine [4] was 2 to 8 µg/mL, the MIC of chlorhexdine [5] was 0.5 to 2 µg/mL and the MIC of chlorhexdine [6] was 2 to 16 µg/mL. For the same compound, the MIC of chlorhexdine [7] was 16 to 32 µg/mL, the MIC of chlorhexdine [8] was 8 to 64 µg/mL and the MIC of chlorhexdine [9] was 4 to 16 µg/mL. The MIC of chlorhexdine [10] was 150 µg/mL, the MIC ([11]; Candida albicans, antimicrobial alone, read-out: MIC Monotherapy (X)) was 4000 µg/mL and the “Ratio Y/X” value [11, 19] was 0.5. For the same compound, the “MIC combination dual therapy (Y)” value ([11]; in FLC + CHX combination) was 2000 µg/mL, the “Ratio Y/X” value [12, 19] was 0.25 and the MIC ([12]; Pseudomonas aeruginosa, antimicrobial alone, read-out: MIC Monotherapy (X)) was 16000 µg/mL. For the same compound, the “MIC combination dual therapy (Y)” value ([12]; in FLC + CHX combination) was 4000 µg/mL, the “Ratio Y/X” value [13, 19] was 0.25-0.5 and the MIC ([13]; Staphylococcus aureus, MRSA, antimicrobial alone, read-out: MIC Monotherapy (X)) was 1000 µg/mL. For the same compound, the “MIC combination dual therapy (Y)” value ([13]; in FLC + CHX combination) was 250 to 500 µg/mL, the MIC of chlorhexdine [14] was 0.125 to 4 µg/mL and the MIC of chlorhexdine [15] was 0.9 to 4 µg/mL. The MIC of chlorhexdine [16] was 0.25 to 1 µg/mL, the MIC of chlorhexdine [17] was 0.25 to 8 µg/mL and the “effect on metabolic activity (heat flow)” value ([18]; chlorhexidine 1 mg/L alone) was “strong shift in a metabolic activity”. For the same compound, the “effect on metabolic activity (heat flow)” value ([18]; chlorhexidine 1 mg/mL alone (Example 3)) was “strong shift in a metabolic activity” and the “concentration with full growth inhibition or bactericidal effect” value ([18]; chlorhexidine digluconate alone, tested 1 and 2 mg/L) was 2 mg/L.
